Reference: patent US10777299B2, “Systems and methods for matching oncology signatures” (THE TRUSTEES OF COLUMBIA UNIVERSITY IN THE CITY OF NEW YORK, priority 2015, dated 2020)

Key:
[1] = tested on: rectal neuroendocrine tumor metastasis (NET-MET) tumor checkpoint; experiment: Drug-induced VIPER-inferred protein activity signatures in H-STS cells versus NET-MET checkpoint; type: cell-based, human; details: H-STS cell line
Text: Drug MoA information was inferred using a NET liver metastasis-derived cell line (H-STS), which recapitulated the tumor checkpoint inferred from patient's samples (FIG. 6A).
Drug-induced VIPER-inferred protein activity signatures were obtained for a few drugs including entinostat. […] Drug MoA information was inferred using a NET liver metastasis-derived cell line (H-STS), which recapitulated the tumor checkpoint inferred from patient's samples, as shown in FIG. 6A.

H-STS xenograft [2] = experiment: H-STS xenograft tumor growth, Champions Oncology (TGI, RECIST, TR); type: in vivo, mice; details: for % TGI: H-STS xenograft in NOD-SCIDS mice, treated 25 days; for effect on H-STS xenograft tumor growth (FIG. 4B): H-STS xenograft models; for RECIST PD/SD/PR/CR: number of mice per response class; for % TR (tumor regression): H-STS xenograft
Description: All test agents were formulated according to manufacturer's specifications. Beginning Day 0, tumor dimensions were measured twice weekly by digital caliper and data, including individual and mean estimated tumor volumes (Mean TV±SEM), were recorded for each group. Tumor volume was calculated using the formula: […].
At study completion, percent tumor growth inhibition (% TGI) values were calculated and reported for each treatment group (T) versus control (C) using initial (i) and final (f) tumor measurements by the formula: % TGI=[1−(Tf−Ti)/(Cf−Ci)]×100. Individual mice reporting a tumor volume >120% of the Day 0 measurement were considered to have progressive disease (PD). Individual mice with neither sufficient shrinkage nor sufficient tumor volume increases are considered to have stable disease (SD). Individual mice reporting a tumor volume ≤70% of the Day 0 measurement for two consecutive measurements over a seven day period were considered partial responders (PR). If the PR persisted until study completion, percent tumor regression (% TR) was determined using the formula: % TR=(1−Tf/Ti)×100; a mean value was calculated for the entire treatment group. Individual mice lacking palpable tumors for two consecutive measurements over a seven day period were classified as complete responders (CR). All data collected in this study were managed electronically and stored on a redundant server system.
(§1) In vivo validation in NOD-SCIDS mice xenografts established by subcutaneous injection of H-STS cells was first conducted at Champions Oncology and then independently confirmed in the mouse hospital facility at Columbia University. Mice were enrolled in treatment arms when tumor size reached 250 mm^3 and were treated for 25 days. Tumor size was measured twice weekly by digital caliper, see methods.

[3] = tested on: H-STS xenograft checkpoint MRs; experiment: OncoTreat: VIPER-inferred MR reversal after compound perturbation of H-STS cells, xenograft MRs; type: cell-based, human; details: H-STS cell perturbation
Description: (§2) To assess the ability of these compounds to induce Tumor Checkpoint collapse (i.e., global inversion of patient-derived MR activity pattern), gene expression profiles were generated at 6 h and 24 h following perturbation of H-STS cells with two sub-lethal compound concentrations, the 72 h IC20 and 1/10th of that concentration in duplicate. The 24 h time point was considered more informative for long term response. These were produced by 30M SE read Illumina TruSeq profiling of RNA purified from treated cells as well as from cells treated with control media (DMSO). This ensured that the highest compound concentration can be tested that would not induce cell death processes and would thus faithfully recapitulate the compound mechanism of action (MoA) rather than the mechanisms and programs associated with cell demise. While in vivo endpoint phenotypes (e.g., tumor viability) are not effectively recapitulated in 2D cultures in vitro, compound MoA is reasonably well-recapitulated in both contexts. One aim can be to identify compounds capable of inverting MR activity signature in vitro in a relatively faithful model of the tumor regulatory context, to assess whether these compounds would have activity in vivo.
(§3) Drug signatures were analyzed with VIPER to assess the change in protein activity before and after the perturbation. Specifically, RX-GES were generated by differential expression of compound-treated vs. control-vehicle-treated cells at all time points and concentrations and analyzed with VIPER against the EP-NET interactome. This ranked all 5,602 regulatory proteins represented in the interactome from the one whose activity was most inhibited to the one whose activity was most increased following drug perturbation. An aREA analysis of patient samples that were well represented by the H-STS xenograft model was performed to assess enrichment of metastatic progression MRs in proteins whose activity was most inverted following drug perturbation. Since validation of these predictions was performed in H-STS mouse xenograft models, the analysis was limited to each NET-MET MRs that were recapitulated in the H-STS xenograft. […] Rather they allow optimal tuning of the results to available in vitro and in vivo models for optimal design of validation assays. Thus, the OncoTreat methodology uses the ability to prioritize small molecule compounds that optimally reverse a patient-specific MR activity signature.
(§4) FIG. 15 depicts the enrichment of the top 50 most activated (shown in red in the enrichment plots) and the top 50 most deactivated (shown in blue) proteins in patient 0 on the protein activity signature induced by each compound perturbation in the H-STS cell line. […] The colored bar indicates the tissue of origin for each of the evaluated tumors.

[4] = tested on: patient-0 metastasis checkpoint MRs; experiment: OncoTreat: VIPER-inferred MR reversal after compound perturbation of H-STS cells, patient-0 MRs; type: cell-based, human; details: H-STS cell perturbation, FIG. 10A
Description: as §2, §3
as §4, with “tumors. […]” for “tumors.”

H-STS xenograft [5] = experiment: H-STS xenograft tumor growth, follow-up studies at Columbia; type: in vivo, mice; details: mean of 8 animals
Description: as §1
This is in line with the poor effect of Bardoxolone methyl, I-BET151 and Bortezomib on xenograft tumor growth, and the strong abrogation elicited by Entinostat (FIGS. 10B and 10C). In summary, while the effect of the Entinostat, I-BET151 and Bardoxolone methyl on the reversal of patient-0 checkpoint activity inferred from the in vitro H-STS perturbation assay was confirmed in the xenograft model, only Entinostat reverted the activity of the H-STS xenograft checkpoints and abrogated tumor growth (FIG. 10).
FIG. 10A depicts enrichment of patient-0 metastasis checkpoint MRs on the protein activity signatures induced by 6 selected compounds in the H-STS cells. FIGS. 10B and 10C depict growth curves for the H-STS xenograft while treated by vehicle control, and each of the 6 selected compounds. Curves show tumor volume for individual animals (FIG. 10B) or the mean±SEM of 8 animals (FIG. 10C). FIG. 10D depicts enrichment of patient-0 metastasis checkpoint on the protein activity signatures induced by 4 selected compounds in the H-STS xenograft. FIG. 10E depicts enrichment of H-STS xenograft checkpoint on the protein activity signatures induced by 4 selected compounds in the H-STS xenograft.

[6] = tested on: patient-0 checkpoint protein activity; experiment: Xenograft transcriptome analysis after drug administration, patient-0 checkpoint; type: in vivo, mice; details: xenograft transcriptome 3 hours after 3rd drug administration
[7] = tested on: H-STS xenograft checkpoint; experiment: Xenograft transcriptome analysis after drug administration, H-STS xenograft checkpoint; type: in vivo, mice; details: xenograft transcriptome 3 hours after 3rd drug administration

## O=C(/C=C/c1cccc(S(=O)(=O)Nc2ccccc2)c1)NO [Belinostat]
[1]
  reverting the NET-MET tumor checkpoint (FIG. 4A): not affecting NET-MET checkpoint
H-STS xenograft [2]; 20 mg (text: 20 mg/kg/dose)
  % TGI: 8%
H-STS xenograft [2]; 20 mg (text: 20 mg/kg/dose), listed as PDX101
  % TGI: 8%
H-STS xenograft [2]; 40 mg
  % TGI: −55%
  RECIST PD/SD/PR/CR: 3/0/0/0
H-STS xenograft [2]
  effect on H-STS xenograft tumor growth (FIG. 4B): did not abrogate tumor growth
H-STS xenograft [2]; 20 mg
  RECIST PD/SD/PR/CR: 3/0/0/0
[3]
  reversal of xenograft MRs (in words): no significant reversal
[4]
  reversal of patient-0 MRs (in words): no significant reversal

## CC(C)C[C@H](NC(=O)[C@H](Cc1ccccc1)NC(=O)c1cnccn1)B(O)O [Bortezomib]
H-STS xenograft [5]
  xenograft tumor growth versus vehicle control (FIG. 10C): no significant difference
[6]
  inhibition of patient-0 checkpoint protein activity in xenograft (FIG. 10D): no effect

## Nc1ccccc1NC(=O)c1ccc(CNC(=O)OCc2cccnc2)cc1 [Entinostat]
[1]
  reverting the NET-MET tumor checkpoint (FIG. 4A): most potent agent
H-STS xenograft [5]
  xenograft tumor growth versus vehicle control (FIG. 10C): complete tumor growth abrogation
[6]
  inhibition of patient-0 checkpoint protein activity in xenograft (FIG. 10D): strong inhibition
[7]
  inhibition of the H-STS xenograft checkpoint in xenograft (FIG. 10E): significant inhibition
H-STS xenograft [2]; 100 mg (text: 100 mg/kg/dose), one week into the test
  drug toxicity / animal deaths: toxic
H-STS xenograft [2]; 25 mg (text: 25 mg/kg/dose)
  % TGI: 112%
  % TR (tumor regression): 68%
H-STS xenograft [2]; 25 mg (text: 25 mg/kg/dose), listed as MS-27-275
  % TGI: 112%
H-STS xenograft [2]; 50 mg (50 mg/kg/dose)
  % TGI: 110%
  % TR (tumor regression): 58%
H-STS xenograft [2]; 50 mg (50 mg/kg/dose), listed as MS-27-275
  % TGI: 110%
H-STS xenograft [2]
  effect on H-STS xenograft tumor growth (FIG. 4B): abrogated completely tumor growth
H-STS xenograft [2]; 100 mg (text: 100 mg/kg/dose), single surviving animal
  % TR (tumor regression): 49%
H-STS xenograft [2]; 25 mg
  RECIST PD/SD/PR/CR: 0/0/3/0
H-STS xenograft [2]; 50 mg
  RECIST PD/SD/PR/CR: 0/0/3/0
H-STS xenograft [2]; 100 mg
  RECIST PD/SD/PR/CR: 0/0/1/0
[3]
  reversal of xenograft MRs (in words): significantly abrogating
[3]; listed as entinostat
  reversal of xenograft MRs (in words): most significant reversal
[4]
  reversal of patient-0 MRs (in words): significantly abrogating
[4]; listed as entinostat
  reversal of patient-0 MRs (in words): most significant reversal

## COc1cc2c(cc1-c1c(C)noc1C)ncc1[nH]c(=O)n([C@H](C)c3ccccn3)c12 [I-BET151]
H-STS xenograft [5]
  xenograft tumor growth versus vehicle control (FIG. 10C): no significant difference
[6]
  inhibition of patient-0 checkpoint protein activity in xenograft (FIG. 10D): strong inhibition
[3]
  reversal of xenograft MRs (in words): significantly abrogating
[4]
  reversal of patient-0 MRs (in words): significantly abrogating

## O=C1NC(=O)[C@@H](c2cn3c4c(cccc24)CCC3)[C@@H]1c1c[nH]c2ccccc12 [Tivantinib]
H-STS xenograft [2]; 50 mg (50 mg/kg/dose)
  % TGI: −46%
H-STS xenograft [2]; 100 mg (text: 100 mg/kg/dose)
  % TGI: 28%
H-STS xenograft [2]; 100 mg (text: 100 mg/kg/dose), listed as ARQ197
  % TGI: 28%
H-STS xenograft [2]; 200 mg (text: 200 mg/kg/dose)
  % TGI: 43%
H-STS xenograft [2]; 200 mg (text: 200 mg/kg/dose), listed as ARQ197
  % TGI: 43%
